# Entries after “also recorded” stand apart in the source; their conditions may differ.
# Columns and labels:
# [1] = test system: growth cone PLA2; assay: PLA2 assay in growth cone particles (GCPs); type: biochemical, rat; conditions: GCPs
# Procedure: Growth Cone Particle (GCP) Isolation. GCPs were prepared as described by Pfenninger et al. (1983) and modified by Lohse et al., Dev. Brain Res., 96:38-96 (1996). Briefly, 18-day fetal brains were homogenized in approximately 8 volumes of 0.32 M sucrose containing 1 mM MgCl2, 2 mM TES buffer, pH 7.3, and 3 μM aprotinin. A low-speed supernatant (1,660 g×15 min) was loaded onto a discontinuous sucrose density gradient With steps of 0.83 M and 2.66 M sucrose containing MgCl2 and TES. The gradients were spun to equilibrium at 242,000 g for 40 min in a vertical rotor (Vti50, Beckman). The GCP fraction at the 0.32/0.83 M sucrose interface was collected and used for the experiments described below.
# All assays were run in triplicate.
# [2] = test system: MAT-Lu cells; assay: Pseudopod morphometry (pseudopod length assay), MAT-Lu cells; type: cell-based, rat; conditions: for effect of inhibitor pretreatment on AA-induced pseudopod shortening: 15 min pretreatment, indomethacin 10 ηm, NDGA 25 μM, CDC 63 and 126 nM; for effect of agent alone on pseudopod length: typically 15 min exposure
# Procedure: Pseudopod Morphometry. To study the effects of various agents on pseudopods on a short-term basis, we measured pseudopod lengths. Cells plated in 35-mm diameter dishes at low density (1×10^4 per dish) were incubated overnight, tie medium was changed, and the experiments were run four hours later. First, cultures were shifted to serum-free medium, which was replaced one hour later by serum-free medium with or without the various agents (thrombin, AA or HETEs). Care was taken to avoid heat and light inactivation of the eicosanoids. Culture dishes were placed on a Zeiss inverted microscope equipped with a heated stage and viewed with a 16×phase contrast objective lens. Randomly selected fields of the cultures, containing generally about 20 cells each, were recorded, digitized and stored in the computer at the onset of the experiment and at different times thereafter.
# In some cases, individual cells were monitored over different periods of time immediately after introduction of the reagent, either by mixing it into the medium or by applying it locally to one end of the cell. Local application was done with a “puffer” system that expels microliter amounts of the desired solution from a micromanipulator-controlled micropipette tip. Cell morphology was recorded, and the captured images were analyzed with a Power Macintosh computer using NIH Image. Cell process length was measured from the center of the nucleus to the end of the process. Characterization of the frequencies of pseudopod lengths, at a fixed time for each of a sequence of concentrations of reagent, utilized a gamma regression model with an inverse quadratic linear predictor (McCullagh and Nelder, Generalized Linear Models 2d ed., pp. 291-292 (Chapman & Hall, 1989), separately fit to each concentration data set. Although no formal goodness-of-fit tests were carried out, in virtually every case there was good visual representation of the pattern of response (see FIG. 14). Most data, however, are shown as whisker-box plots, where the center point represents the 50%, the ends of the box the […] and 75%, and the “whiskers” the 5% and 95% quantiles (e.g., FIG. 11). Statistical comparisons of pseudopod lengths for different treatments were done by standard non-parametric techniques (Wilcoxon Rank Sum or Kruskal-Wallis Tests), as judged appropriate. Polynomial curve fittings were done by standard least-squares techniques. Statistical analyses and graphing were done with the use of SAS procedures: Reg, Phreg, Nparlway and Plot (SAS institute Inc., Cary, N.C.).
# [3] = test system: growth cones in cultures of rat cerebral cortex; assay: Growth cone collapse assay in cortical neuron culture; type: cell-based; conditions: for effect of inhibitor pretreatment on thrombin- or TRAP-induced growth cone collapse: CDC 10 μM, indomethacin 25 μM, pretreatment 30-45 min
# Procedure: Neuron Culture. Cerebral cortices were dissected from embryonic day 18 Sprague-Dawley rats, cut into explants of less than 1 mm^3 and cultured on either poly-D-lysine-coated coverglass (Assistent) or poly-D-lvsine-coated tissue culture plastic. After 24 hours in B27 neurobasal medium (NB) supplemented with 10% fetal bovine serum, cultures were switched to serum-free B27/NB. The cultures were incubated at 37° C. in 5% CO2 in air. Sprouting neurons were observed readily on day 1. On day 2 or 3, long neurites were present, and the cultures were used for collapse experiments.
# Actin Staining. After experimentation, cultures were fixed by slow infusion of fixative (4% paraformaldehyde in 0.1 M phosphate buffer, pH 7.4) into the culture dishes over 10 min (Pfenninger and Maylié-Pfenninger, J. Cell Biol. 89:53-546 (1981)). Thereafter, the fixative was removed by rinsing three times with phosphate-buffered saline (PBS) containing 1 mM glycine. Cultures were then blocked with PBS/1% bovine serum albumin (BSA) and permeabilized by incubation in 0.02% Triton X-100 for 5 min. After three washes in PBS/BSA, cultures were incubated with Texas-Red-conjugated phalloidin for 30 min. Unbound phalloidin was washed away by two PBS rinses, after which the coverglasses were mounted in Slow-Fade Light on microscope slides. Images were recorded on 35 mm film using a Zeiss Axiophot fluorescence microscope equipped with epiillumination.
# Growth Cone Collapse Assay. Prior to repellent factor treatment, some of the day 2-3 explant cultures were pre-incubated (at 37° C.) with inhibitor or vehicle control (dimethylsulfoxide or ethanol) for 30-60 min. Cultures were then challenged with a repellent factor or vehicle control for 1-30 min. In some experiments, live cultures were photographed with a Zeiss IM 35 inverted photo microscope equipped with a stage heater, while in others cultures were fixed (as above) after 7 minutes of repellent factor treatment. Growth cone collapse was assessed quantitatively in aldehyde-fixed cultures by grading the degree of collapse in a large number of randomly selected growth cones.
# [4] = test system: 12-Lox; assay: Eicosanoid (HETE) generation in GCPs; type: biochemical, rat
# Procedure: Eicosanoid Assays. Eicosanoid production in GCPs was measured by metabolic labelling from ^14C-AA or ^14C-AA-PC or by mass spectrometric detection. […] To measure Lox activity directly, without PLA2 involvement, ^3H-AA was the substrate of choice. Reactions were stopped by the addition of chloroform/methanol as for the phospholipase assays. Reaction products were extracted as described by Birkle et al., Neuromethods, vol. 7, pp.227-244 (Humana Press, N.J. 1988), spotted on pre-activated si gel 60 TLC plates, and the plates developed in the upper phase of ethyl acetate/isooctane/acetic acid/water (100:60:20:100). AA and HETEs were identified by co-migration with standards. Appropriate bands were counted by liquid scintillation spectrometry.
# For mass-spectrometric (MS) identification of HETEs, two different strategies were pursued:
# (1) the appropriate bands from non-labelled samples (PC substrate) were scraped from the TLC plate into ether/methanol (9:1) and stored under N2 at −20° C. Authentic 12(S)-HETE, run alongside in the same manner, was used as a standard. Just prior to analysis, samples were passed over an SPE filter to eliminate silica particles, dried under argon, resuspended in 500 μl ethanol, and injected (at 3 μl/min) into a Finnigan LCQ quadrupole ion trap mass spectrometer (Finnigan MAT, San Jose, Calif.) equipped with an electrospray ionization source. All spectra were acquired at a capillary temperature of 80° C., and ion guide voltages were tuned to maximize the abundance of the deprotonated ion species [M-H]^− in negative mode. In order to generate a spectrum, typically 100 single scans were averaged.
# (2) For the other strategy (liquid chromatography/tandem MS, LC/MS^2), the reaction substrate consisted of 3.5 μM AA, with the addition of 3.5 μM deuterated AA (AA-D8) plus 1 μCi ^3H-AA to track reaction products by mass and radioactivity, respectively. Reactions were stopped with ice-cold ethanol, the mixtures kept overnight at −20° C. under N2, and the proteins spun out The supernatants were diluted with H2O and loaded onto 1-ml C18 Sep-Pak columns (Varian). After washing with H2O, eicosanoid was eluted with 2 ml methanol. These samples were resolved by reverse-phase HPLC, and the eluted fractions analyzed by tandem MS on-line (MacMillan and Murphy, 1995). Collision-induced decomposition of HETE isomers produced characteristic fragments that were identified at the second MS stage.
# [5] = test system: GCPs plated on laminin; assay: GCP release (detachment) assay on laminin; parameters: species or system rat; conditions: 20 min at 37° C., cytochalasin D 1 μM
# Procedure: GCP Release Assay. Petri dishes (35 mm diameter) were coated with 10 μg mouse laminin in PBS by incubation at room temperature for 60 min with shaking. Dishes were subsequently rinsed three times with PBS to remove unbound laminin and then blocked with 5% non-fat dry milk (Carnation) in PBS for 30 min. After three PBS rinses to remove blocking agent, the dishes were ready for the addition of GCPs. […] After incubation for five min at 37° C. this buffered GCP preparation was added to the laminincoated petri dishes. Contact with the substratum was facilitated by centrifuging the dishes for 15 min at 5000 g (Beckman JS5.2 rotor) at room temperature, followed by incubation at 37° C. to allow adhesion site formation. After 10 min, unattached GCPs were removed by rinsing the dishes twice with 1× modified Krebs buffer. Plated GCPs were then challenged with repellent factor (TRAP or thrombin) for 20 min at 37° C. The supernatant containing released GCPs was collected and centrifuged for protein determination of the pellet. GCPs that remained attached after repellent treatment were removed with 5% sodium dodecyl sulfate (SDS) for protein assay. Protein was measured according to Lowry et al. (1951) as modified by Peterson (1983). Results of these experiments were expressed as the percentage of released versus total GCP protein in the assay.
# [6] = test system: protein kinase C (PKC); assay: MARCKS phosphorylation by PKC in isolated GCPs; type: biochemical, rat; conditions: isolated growth cones
# Description: FIG. 7A. Thrombin stimulates MARCKS phosphorylation in a 12-LOX-dependent manner. FIG. 7B. 12(S)-HETE stimulates MARCKS phosphorylation by PKC in isolated GCPs. […] Polypeptides were resolved by SDS-PAGE. MARCKS phosphorylation was quantified by phosphorimaging.
compound,measurement,setting,value
insulin: insulin from Collaborative Biomedical Products,activation of growth cone cPLA2/PLA2,[1],failed to stimulate PLA2 significantly
same,net activity (pmol/min/mg protein),"[1]; Table 3c, substrate PI, BDNF 100, IGF-1 0.75, insulin 1, thrombin 200 nM, control 159 ± 6.2",158 ± 8.4 pmol/min/mg protein
COc1ccc2c(c1)c(CC(=O)O)c(C)n2C(=O)c1ccc(Cl)cc1 [indomethacin],effect of inhibitor pretreatment on AA-induced pseudopod shortening,[2],did not influence the AA effect; also recorded: had no effect at all
same,effect of inhibitor pretreatment on thrombin- or TRAP-induced growth cone collapse,[3],has no effect on control or thrombin treatment of growth cones
same,effect of inhibitor on thrombin-stimulated HETE production from AA,[4]; 3H-AA substrate,not
NGF: growth factor whose receptors are present on GCPs,activation of growth cone cPLA2/PLA2,[1],only weakly or not at all
"CC(=O)C(C)=NO [BDM, 2,3-butanedione monoxime]",effect on GCP detachment from laminin,[5],caused considerable release of GCPs by themselves
"CCCCC[C@H](O)/C=C/C=C\C/C=C\C/C=C\CCCC(=O)O [15(S)-HETE, 15(S)-hydroxyeicosatetraenoic acid]",effect of agent alone on pseudopod length,[2],about as active as 12(S)-HETE; also recorded: reduced pseudopod lengths of MAT-Lu cells in a biphasic manner
C=C1[C@@H](C)[C@H]2[C@H](Cc3ccccc3)NC(=O)[C@]23[C@H](OC(C)=O)/C=C/[C@@](C)(O)C(=O)[C@@H](C)C/C=C/[C@H]3[C@@H]1O [cytochalasin D],effect on GCP detachment from laminin,[5],caused considerable release of GCPs by themselves
SFLLRN [TRAP],activation of growth cone cPLA2/PLA2,[1],"clearly stimulated PLA2, but to a considerably lesser degree"
same,activation of growth cone cPLA2/PLA2,[1]; listed as TRAPs,much less effectively
same,effect on GCP detachment from laminin,[5],mimics the effect
same,effect on GCP detachment from laminin,[5]; listed as TRAPs,much less effectively
same,"growth cone collapse, agent alone","[3]; thrombin 100 nM, TRAP (100 mM), 12(S)-HETE 10^−7 M","qualitatively the same effect as thrombin, but the change is not as pronounced"
"CC(Cc1ccc(O)c(O)c1)C(C)Cc1ccc(O)c(O)c1 (stereo not drawn) [NDGA, nordihydroguaiaretic acid]",effect of inhibitor pretreatment on AA-induced pseudopod shortening,[2],blocked the AA effect completely; also recorded: inhibited the pseudopod shortening
same,effect of agent alone on pseudopod length,[2],had no effect on pseudopod lengths
same,effect of inhibitor pretreatment on thrombin- or TRAP-induced growth cone collapse,[3],protects growth cones from thrombin- or TRAP-induced collapse
same,effect on conversion of 14C-AA into 12(S)-HETE,"[4]; 60 min, 37° C.",blocked
CCCCC/C=C\C[C@@H](O)/C=C/C=C\C/C=C\CCCC(=O)O [12(R)-HETE],effect of agent alone on pseudopod length,[2],essentially inactive; also recorded: small reduction in pseudopod length
same,stimulation of MARCKS and GAP43 phosphorylation,[6],not
CCCCC/C=C\C/C=C\C/C=C\C=C\[C@@H](O)CCCC(=O)O [5(S)-HETE],effect of agent alone on pseudopod length,[2],essentially inactive; also recorded: had no effect on pseudopod length
